# Assay results published in patent US20050026853A1, “Anti-viral 7-deaza D-nucleosides and uses thereof” (Micrologix Biotech Inc., priority 2002, published 2005).
# Tests used:
# [1] = overall biopharmaceutical properties / oral availability
# HBV = HBV cell-based assay; parameters: species or system hepatitis B virus
# Description: As described herein, compounds of the instant invention show surprising and exceptionally strong inhibition of viral replication, particularly HBV. […] In certain embodiments, the invention provides compounds capable of inhibiting viral replication, preferably HBV, at clinically relevant concentrations.
# HBV cell-based assays for the evaluation of anti-viral activity against HBV are known in the art (see, e.g., Korba et al., Antiviral Res. 15:217, 1991; and Korba et al., Antiviral Res. 19:55, 1992). Moreover, the compounds of the invention can be useful research tools for in vitro and cell-based assays to study the biological mechanisms of viral infection, growth, and replication, preferably for HBV. By way of background and not wishing to be bound by theory, HBV replication is unusual in that this virus has a partially […] circular DNA (all of the minus DNA strand and part of the plus strand), but replicates by way of an RNA intermediate (typically, single-stranded viral DNA is converted to double stranded DNA, which serves as the template for viral replication). That is, when the virus enters the cell, the minus-strand DNA is transported to the cell nucleus, plus strand RNA is then transcribed from the DNA, the RNA is transported to the cytoplasm, and reverse transcriptase then synthesizes viral DNA from the RNA for packaging. […]
smiles,measurement,setting,value
"Nc1ncnc2c1c(F)cn2[C@H]1CC(O)[C@@H](CO)O1 (stereo partly drawn) [structure (II), 4-amino-5-fluoro-7-(2′-deoxy-β-D-erythro-pentofuranosyl) pyrrolo[2,3-d]pyrimidine]",oral availability,[1],orally available
same,overall biopharmaceutical properties,[1],good overall biopharmaceutical properties
same,anti-viral activity against HBV,HBV,exhibit anti-viral activity against HBV
